Laboratory results published in US20110098296A1, “Thiazole And Oxazole Kinase Inhibitors” (priority 2007, published 2011).
pIC50: −log10 of the molar value.

How the values were obtained:
[1] = target: T1, EGFR (Homo sapiens, UniProt P00533); assay: EGFR substrate phosphorylation assay (HTRF); type: biochemical; conditions: Method (A): Enzyme Mix incubated with compound at 20° C. for 1 hr, reaction started by adding Substrate Mix
T1 construct: made in house; host or cells: baculovirus expression system
T1 sequence (P00533 25-1210): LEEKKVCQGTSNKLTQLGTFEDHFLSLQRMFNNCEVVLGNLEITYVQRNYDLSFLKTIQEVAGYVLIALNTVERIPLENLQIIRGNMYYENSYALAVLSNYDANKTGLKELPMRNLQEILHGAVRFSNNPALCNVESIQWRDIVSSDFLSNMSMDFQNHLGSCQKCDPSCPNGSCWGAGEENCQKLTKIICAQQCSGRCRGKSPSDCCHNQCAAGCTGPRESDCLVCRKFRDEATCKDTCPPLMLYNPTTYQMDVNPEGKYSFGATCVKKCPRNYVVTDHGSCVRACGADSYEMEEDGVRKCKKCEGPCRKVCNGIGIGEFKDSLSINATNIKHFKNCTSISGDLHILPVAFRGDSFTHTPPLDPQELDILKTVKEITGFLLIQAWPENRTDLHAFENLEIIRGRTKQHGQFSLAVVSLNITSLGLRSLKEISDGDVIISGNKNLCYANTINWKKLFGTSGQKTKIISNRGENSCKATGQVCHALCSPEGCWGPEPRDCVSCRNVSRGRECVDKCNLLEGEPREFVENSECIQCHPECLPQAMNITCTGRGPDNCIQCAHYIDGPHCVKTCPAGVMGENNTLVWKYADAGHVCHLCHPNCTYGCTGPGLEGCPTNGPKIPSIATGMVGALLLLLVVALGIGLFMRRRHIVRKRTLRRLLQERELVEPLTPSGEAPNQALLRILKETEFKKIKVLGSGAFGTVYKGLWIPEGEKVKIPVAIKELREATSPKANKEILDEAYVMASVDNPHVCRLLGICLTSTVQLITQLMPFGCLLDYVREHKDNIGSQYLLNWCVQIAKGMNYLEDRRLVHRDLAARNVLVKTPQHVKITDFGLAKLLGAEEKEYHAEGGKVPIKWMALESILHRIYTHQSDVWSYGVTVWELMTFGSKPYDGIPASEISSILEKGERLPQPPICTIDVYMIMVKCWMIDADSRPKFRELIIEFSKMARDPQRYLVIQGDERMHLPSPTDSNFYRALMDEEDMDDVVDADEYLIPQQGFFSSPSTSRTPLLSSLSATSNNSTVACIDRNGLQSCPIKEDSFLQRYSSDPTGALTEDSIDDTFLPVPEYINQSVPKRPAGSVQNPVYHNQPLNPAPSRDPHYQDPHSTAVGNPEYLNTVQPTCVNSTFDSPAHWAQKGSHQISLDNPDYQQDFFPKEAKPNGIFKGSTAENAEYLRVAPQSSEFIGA
In short: (§1)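 Baculovirus-expressed kinase (0.8 nM EGFR or 10 nM ErbB2 in enzyme mix) with Peptide C 0.8 μM and ATP 20 μM (substrate-mix levels), MOPS pH 7.5, MnCl2; 90 min, 20 °C, HTRF anti-phosphotyrosine. Method A adds 1 h enzyme–compound preincubation; B none. pIC50, final compound 0.00027–47.6 μM.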

[2] = target: T2, ErbB2 (Homo sapiens, UniProt P04626); assay: ErbB-2 substrate phosphorylation assay (HTRF); type: biochemical; conditions: Method (A): Enzyme Mix incubated with compound at 20° C. for 1 hr, reaction started by adding Substrate Mix
T2 construct: made in house; host or cells: baculovirus expression system
T2 sequence (P04626 23-1255): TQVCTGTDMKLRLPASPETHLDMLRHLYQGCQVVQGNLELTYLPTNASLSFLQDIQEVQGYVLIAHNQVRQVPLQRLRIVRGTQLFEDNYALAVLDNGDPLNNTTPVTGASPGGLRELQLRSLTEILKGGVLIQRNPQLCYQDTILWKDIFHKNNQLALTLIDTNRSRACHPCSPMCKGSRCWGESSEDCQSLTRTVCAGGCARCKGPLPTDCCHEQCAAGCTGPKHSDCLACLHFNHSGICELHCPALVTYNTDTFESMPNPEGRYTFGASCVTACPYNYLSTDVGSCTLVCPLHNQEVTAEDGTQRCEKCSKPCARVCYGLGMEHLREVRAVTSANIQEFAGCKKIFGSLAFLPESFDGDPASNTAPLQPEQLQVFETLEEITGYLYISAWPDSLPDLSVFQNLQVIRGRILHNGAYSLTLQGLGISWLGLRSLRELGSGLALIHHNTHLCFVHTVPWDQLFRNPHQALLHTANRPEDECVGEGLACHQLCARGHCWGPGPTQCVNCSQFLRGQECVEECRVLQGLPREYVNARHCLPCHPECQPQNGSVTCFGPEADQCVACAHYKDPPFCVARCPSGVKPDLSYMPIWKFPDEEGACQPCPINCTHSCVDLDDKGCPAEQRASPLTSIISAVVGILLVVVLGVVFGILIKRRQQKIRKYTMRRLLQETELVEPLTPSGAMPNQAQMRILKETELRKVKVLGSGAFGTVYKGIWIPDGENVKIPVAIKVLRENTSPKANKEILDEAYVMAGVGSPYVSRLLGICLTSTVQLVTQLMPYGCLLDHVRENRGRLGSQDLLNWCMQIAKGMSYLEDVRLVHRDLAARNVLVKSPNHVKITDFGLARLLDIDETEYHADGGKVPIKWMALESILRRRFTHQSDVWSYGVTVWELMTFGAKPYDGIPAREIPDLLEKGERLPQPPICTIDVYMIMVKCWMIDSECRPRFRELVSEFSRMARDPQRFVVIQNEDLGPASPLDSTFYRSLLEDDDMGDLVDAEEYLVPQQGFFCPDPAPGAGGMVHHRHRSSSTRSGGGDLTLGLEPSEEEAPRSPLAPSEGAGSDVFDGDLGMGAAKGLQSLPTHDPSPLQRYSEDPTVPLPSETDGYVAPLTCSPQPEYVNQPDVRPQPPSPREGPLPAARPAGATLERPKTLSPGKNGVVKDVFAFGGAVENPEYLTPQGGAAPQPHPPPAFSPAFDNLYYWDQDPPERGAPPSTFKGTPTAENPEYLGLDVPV
In short: as §1

[3] = tested on: HN5 tumor cells; assay: Method C: Cell Growth Inhibition Assay (CellTiter-Glo), HN5; type: cell-based; conditions: Homo sapiens, 72 h, 3 days, 4-parameter fit
Procedure: (§2) Human breast tumor cells (BT474) were cultured in RPMI (Mediatech 50-011-PB), containing 10% FBS (JRH Biosciences 12176) and 1% penicillin-streptomycin (Invitrogen 15140). Human head and neck tumor cells (HN5) were cultured in high glucose DMEM (Mediatech 50-013-PB) containing 10% FBS and 1% penicillin-streptomycin. Human colon tumor cells (Colo205) were cultured in RPMI (Mediatech 50-020-PB) containing 10% FBS and 1% penicillin-streptomycin. Human melanoma cancer cells (SK-MEL-28) were cultured in EMEM with nonessential amino acids (Mediatech 50-011-PB) containing 10% FBS, 1% sodium pyruvate (JT Baker 3354-04), and 1% penicillin-streptomycin. Human melanoma cancer cells (A375P F11s) were cultured in RPMI (Mediatech 50-020-PB) containing 10% FBS, 1% sodium pyruvate, and 1% penicillin-streptomycin. Human colon cancer cells (HT-29) were cultured in high glucose DMEM (Mediatech 50-013-PB) containing 10% FBS and 1% penicillin-streptomycin. Human melanoma cancer cells (SK-MEL-3) were cultured in McCoy's 5A (50-025-PB) containing 15% FBS, and 1% penicillin-streptomycin. All cell lines were maintained at 37° C. in a humidified 5% CO2, 95% air incubator. Cells were harvested using trypsin/EDTA (Invitrogen 25200), counted using an haemocytometer, and plated. For 96-well assays (using white full-area NUNC plates cat. #136102), cells were plated in 105 μL at the following densities (cells/well): HN5, 500; Colo205, 500; SK-MEL-28, 500; A375P-F11s, 500; HT-29, 500; SK-MEL-3, 500; and BT474, 3000. For 384-well assays (white full-area NUNC plates, cat. #781080), cells were plated in 48 μL at the following densities (cells/well): HN5, 500; Colo205, 500; SK-MEL-28, 500; A375P-F11s, 500; HT29, 500; SK-MEL-3, 500; and BT474, 2000.
(§3) The next day, compounds were diluted as follow: For 96-well assays, 13.5 μL of compound in DMSO were diluted using nine (9) serial 1:3 dilutions of 4.5 μL in 9 μL of DMSO. Medium (270 μl/well of RPMI with 10% FBS and 1% penicillin-streptomycin) was added to the plates. Aliquots (7 μl) were added to cells in the final assay giving a final DMSO concentration of 0.2%. For 384-well assays, 15 μL of compound in DMSO were diluted using nine (9) serial 1:3 dilutions of 5 μL in 10 μL of DMSO, followed by a further dilution of 5 μL of compound with 95 μL of medium, of which 2 μL were added to cells in the final assay giving a final DMSO concentration of 0.2%. Cells were incubated at 37° C., 5% CO2 for 3 days.
(§4) Total ATP was measured (as a surrogate estimate of cell number) using CellTiter-Glo® reagent (Promega G7571). Briefly, plates were removed from the incubator and allowed to equilibrate to room temperature for 30 minutes. CellTiter-Glo® (25 μL or 55 μL for 384-well or 96-well assays, respectively) reagent was added to each well and plates were shaken on an orbital plate shaker for 2 mins. Plates were incubated without shaking for a further 30 mins and read on an LJL Analyst GT reader in luminometer mode with an integration time of 0.5 seconds per well. Percent inhibition of cell growth was calculated relative to DMSO vehicle-treated control wells. Concentration of compound required to give 50% inhibition of vehicle-treated control cell growth (IC50) was interpolated using a 4-parameter fit for determining IC50 using the following equation: Y=A+((B−A)/(1+((C/X)̂D))) where X=IC50.

[4] = tested on: BT474 tumor cells; assay: Method C: Cell Growth Inhibition Assay (CellTiter-Glo), BT474; type: cell-based; conditions: Homo sapiens, BT-474, 72 h, 3 days, 4-parameter fit
[5] = tested on: Colo205 tumor cells; assay: Method C: Cell Growth Inhibition Assay (CellTiter-Glo), Colo205; type: cell-based; conditions: Homo sapiens, COLO 205, 72 h, 3 days, 4-parameter fit
In short: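 Cells were seeded at 500 per well and dosed the next day with nine serial 1:3 compound dilutions (0.2% DMSO final), then grown 3 days at 37° C, 5% CO2. ATP was measured by CellTiter-Glo luminescence, and IC50 was interpolated by 4-parameter fit of percent inhibition versus DMSO controls.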

[6] = tested on: SK-MEL-28 tumor cells; assay: Method C: Cell Growth Inhibition Assay (CellTiter-Glo), SK-MEL-28; type: cell-based; conditions: Homo sapiens, SK-MEL-28, 72 h, 3 days, 4-parameter fit
In short: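 Luminescent ATP signal (CellTiter-Glo, after 30 min room-temperature equilibration) served as a surrogate for cell number after a 3-day compound exposure at 37° C. Cells were plated at 500/well and treated with serially diluted compound at 0.2% DMSO. IC50 values are 4-parameter fits against DMSO-treated wells.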

[7] = tested on: A375P F11s tumor cells; assay: Method C: Cell Growth Inhibition Assay (CellTiter-Glo), A375P F11s; type: cell-based; conditions: Homo sapiens, 72 h, 3 days, 4-parameter fit
Procedure: as §2, §3, §4

[8] = tested on: HT-29 tumor cells; assay: Method C: Cell Growth Inhibition Assay (CellTiter-Glo), HT-29; type: cell-based; conditions: Homo sapiens, HT-29, 72 h, 3 days, 4-parameter fit
Procedure: as §2, §3, §4

[9] = tested on: SK-MEL-3 tumor cells; assay: Method C: Cell Growth Inhibition Assay (CellTiter-Glo), SK-MEL-3; type: cell-based; conditions: Homo sapiens, SK-MEL3, 72 h, 3 days, 4-parameter fit
Procedure: as §2, §3, §4

SMILES | pIC50 [1] | pIC50 [2] | pIC50 [3] | pIC50 [4] | pIC50 [5] | pIC50 [6] | pIC50 [7] | pIC50 [8] | pIC50 [9]
CN(C)CCOc1ccc(Nc2nccc(-c3sc(N)nc3-c3cccc(NC(=O)c4c(F)cccc4F)c3)n2)cc1Cl [Example 5, N-(3-{2-Amino-5-[2-({3-chloro-4-[2-(dimethylamino)ethoxy]-phenyl}amino)pyrimidin-4-yl]-1,3-thiazol-4-yl}phenyl)-2,6-difluorobenzamide-formic acid] | > 7.00 | > 7.00 | > 7.00 | > 7.00 | 6.00 to 7.00 | 6.00 to 7.00 | 6.00 to 7.00 | 6.00 to 7.00 | 6.00 to 7.00
Cc1nc(-c2cccc(NC(=O)c3c(F)cccc3F)c2)c(-c2ccnc(Nc3ccc(OC4CCN(C)CC4)c(F)c3)n2)s1 [Example 108, 2,6-Difluoro-N-(3-{5-[2-({3-fluoro-4-[(1-methyl-4-piperidinyl)oxy]phenyl}amino)-4-pyrimidinyl]-2-methyl-1,3-thiazol-4-yl}phenyl)benzamide] | > 7.00 | > 7.00 | 6.00 to 7.00 | > 7.00 | 6.00 to 7.00 | < 6.00 | 6.00 to 7.00 | 6.00 to 7.00 | < 6.00
O=C(Nc1cccc(-c2nc(NCCCN3CCOCC3)sc2-c2ccnc(Nc3cccc(CN4CCCC4)c3)n2)c1)c1c(F)cccc1F [Example 28, 2,6-Difluoro-N-{3-[2-{[3-(4-morpholinyl)propyl]amino}-5-(2-{[3-(1-pyrrolidinylmethyl)phenyl]amino}-4-pyrimidinyl)-1,3-thiazol-4-yl]phenyl}benzamide] | > 7.00 | > 7.00 | 6.00 to 7.00 | > 7.00 | 6.00 to 7.00 | 6.00 to 7.00 | 6.00 to 7.00 | 6.00 to 7.00 | 6.00 to 7.00
CNc1nc(-c2cccc(NC(=O)c3c(F)cccc3F)c2)c(-c2ccnc(Nc3ccc(OCCN(C)C)c(Cl)c3)n2)s1 [Example 24, N-{3-[5-{2-[(3-Chloro-4-{[2-(dimethylamino)ethyl]oxy}phenyl)amino]-4-pyrimidinyl}-2-(methylamino)-1,3-thiazol-4-yl]phenyl}-2,6-difluorobenzamide] | > 7.00 | > 7.00 | > 7.00 | > 7.00 | 6.00 to 7.00 | 6.00 to 7.00 | 6.00 to 7.00 | 6.00 to 7.00 | 6.00 to 7.00
COc1ccc(Nc2nccc(-c3sc(NC4CC4)nc3-c3cccc(NC(=O)c4c(F)cccc4F)c3)n2)cc1OCCN(C)C [Example 32, N-{3-[2-(cyclopropylamino)-5-(2-{[3-{[2-(dimethylamino)ethyl]oxy}-4-(methyloxy)phenyl]amino}-4-pyrimidinyl)-1,3-thiazol-4-yl]phenyl}-2,6-difluorobenzamide] | > 7.00 | > 7.00 | > 7.00 | 6.00 to 7.00 | 6.00 to 7.00 | 6.00 to 7.00 | 6.00 to 7.00 | 6.00 to 7.00 | 6.00 to 7.00
CNc1nc(-c2cccc(NC(=O)c3c(F)cccc3F)c2)c(-c2ccnc(Nc3cccc(CN4CCCC4)c3)n2)s1 [Example 23, 2,6-Difluoro-N-{3-[2-(methylamino)-5-(2-{[3-(1-pyrrolidinylmethyl)phenyl]amino}-4-pyrimidinyl)-1,3-thiazol-4-yl]phenyl}benzamide] | > 7.00 | > 7.00 | > 7.00 | > 7.00 | 6.00 to 7.00 | < 6.00 | 6.00 to 7.00 | 6.00 to 7.00 | 6.00 to 7.00
CN(C)CCOc1ccc(Nc2nccc(-c3sc(N)nc3-c3cc(NC(=O)c4c(F)cccc4F)ccc3F)n2)cc1Cl [Example 68, N-[3-(2-Amino-5-{2-[(3-chloro-4-{[2-(dimethylamino)ethyl]oxy}phenyl)amino]-4-pyrimidinyl}-1,3-thiazol-4-yl)-4-fluorophenyl]-2,6-difluorobenzamide] | > 7.00 | > 7.00 | > 7.00 | > 7.00 | 6.00 to 7.00 | 6.00 to 7.00 | 6.00 to 7.00 | 6.00 to 7.00 | 6.00 to 7.00
